Laboratory results taken from patent US8088822B2, “Use of fenretinide or bioactive derivatives thereof and pharmaceutical compositions comprising the same” (priority 2008, dated 2012).
Like-named read-outs stand apart in the source and are kept apart here.

Tests used:
HL60 cells [1] = assay: Annexin V apoptosis assay in proliferating and serum-deprived quiescent HL60 cells; assay type: cell-based; conditions: 24 h
Protocol: (§1) HL60 cells were cultured in RPMI 1640 supplemented (i) with or (ii) without 10% fetal bovine serum to obtain proliferating and quiescent leukemia cells respectively. Serum-deprived quiescent leukemic cells and proliferating leukemic cells were then cultured in media containing 0.5% FBS, and treated with 1 μM and 2.5 μM fenretinide, and also with chemotherapeutics as controls, 20 μM idarubicin (IDA) and 5 μM cytarabine (Ara-C).
(§2) 2×10^5 cultured cells were used for evaluating apoptosis using an ApoAlert Annexin V-FITC Apoptosis Kit (BD Biosciences). Cells were washed once by PBS, resuspended in 200 μl Annexin-V binding buffer, and then stained with Annexin V-FITC 5 μl, PI 10 μl for 15 min at room temperature in the dark. Cells were subsequently analyzed by flow cytometry.
(§3) To examine the effects of fenretinide on proliferating and quiescent leukemia cells, HL60 cells were chosen as serum deprived quiescent leukemic cell model obtained when incubated in RPMI 1640 without serum for 48 h, with G0/G1 phase cells (being in quiescent state) accounting up to 59.9%. Serum-deprived quiescent leukemic cells and proliferating leukemic cells were then cultured in media containing 0.5% FBS, and treated with 1 μM and 2.5 μM fenretinide, and also with chemotherapeutics as controls, 20 μM idarubicin (IDA) and 5 μM cytarabine (Ara-C). […] Fenretinide induces intracellular production of ROS, lowers mitochondrial transmembrane potential (MTP), and eventually leads to apoptosis in a variety of malignancies. We measured MTP induced by fenretinide in proliferating and quiescent HL60 cells, as examined through rhodamine 123 and propidium iodide staining and followed by flow cytometry analysis. […] We further measured intracellular ROS abundance induced by fenretinide. […] After incubation with 1 μM and 2.5 μM fenretinide for 3 h, the ROS level of proliferating cells increased by 1.77 and 2.6 fold, respectively.

HL60 cells [2] = assay: Intracellular ROS accumulation, DCFH-DA staining, HL60 cells; assay type: cell-based; conditions: 3 h; for increase of ROS level: proliferating HL60 cells; for fold change of ROS: quiescent HL60 cells
Protocol: as §1
(§4) The intracellular generation of reactive oxygen species (ROS) was measured using of the oxidation-sensitive fluorescent dye 2,7-dichlorofluorescin diacetate (DCFH-DA) (Molecular Probes). After 3 h exposure of fenretinide, 2×10^5 cells were harvested and washed once with PBS, then loaded with 1 ml PBS containing 10 μM of DCFH-DA. The cells were then incubated at 37° C. for 30 min and the fluorescence intensity was measured at 530 nm.
as §3

AML CD34+ cells = assay: Apoptosis/viability of AML CD34+ cells (annexin-V FITC/7AAD); assay type: cell-based, human; conditions: for viability at 5 µM: 5 μM fenretinide
From the text: Fresh bone marrow (BM) cells were obtained from 38 patients with CML and 5 non-leukemic donors, 25 AML, 17 ALL, and 8 normal specimens with informed consent according to the Declaration of Helsinki. Approval was obtained from Institutional Review Board at the School of Medicine in Shanghai Jiao Tong University. BM mononuclear cells were isolated by Ficoll density gradient centrifugation (Shanghai Second Reagent Factory, Shanghai, China). CD34^+ Cell were selected using EasySep® Human CD34 Positive Selection kit (Stem Cell Technologies, Vancouver, BC, Canada) according to the manufacturer's instructions. The purity of CD34 cells ranged between 92 and 98% in all samples detennined by flow cytometry. The CD34^+ cells were cultured in a serum-free medium (StemPro 34; Gibco BRL, Gaithersburg, Md.) supplemented with growth factors (PeproTech, London, United Kingdom) (20). The growth factors consisted of GM-CSF (200 pg/mL), G-CSF (1 ng/mL); SCF (200 pg/mL); LIF (50 pg/mL), MIP-1α (200 pg/mL) and IL-6 (1 ng/mL).
Primitive AML and CML subpopulations (CD34^+ cells) were identified using CD34-PE in combination with CD38-APC, and followed by double-labeling with 7AAD and Annexin V antibodies for apoptosis assessment. The CD34^+ cells were first stained with antibodies against the surface markers CD34-PE and CD38-APC (Beckman Coulter, Fullerton, Calif.) and incubated at room temperature for 15 minutes. Cells were then washed with cold PBS and resuspended in 200 μL annexin V 1×binding buffer (10 mM HEPES/NaOH, pH 7.4, 140 mM NaCl, 2.5 mM CaCl2), 5 μL AnnexinV-FITC (BD Phanningen, San Diego, Calif.) and 7-aminoactinomycin (7-AAD, 0.25 mg/mL) (Molecular Probes, Eugene, Oreg.). Subsequently, the samples were incubated at room temperature for 15 minutes and analyzed by flow cytometry.
Primary acute leukemia cells from specimens including AML and ALL are mostly quiescent, especially for the subpopulations of leukemic CD34^+ cells (Guan and Hogge, 2000). To verify if this quiescent leukemia cells are sensitive to fenretinide, we compared the effects of fenretinide on primary leukemia versus normal specimens during short-term suspension culture. CD34^+ cells were isolated from primary acute leukemia specimens, and subjected to DNA content analysis through propidium iodide staining and followed by flow cytometry. The majority of isolated CD34^+ cells from AML and ALL were in G0/G1 phase of the cell cycle, indicating the quiescent feature of leukemia CD34^+ cells (FIG. 4A). Then, apoptosis profiles of AML CD34^+ cells and normal CD34^+ cells were examined through annexin-V FITC and 7AAD double staining (FIG. 4B).

[3] = tested on: K562, HL60 and NB4 leukemia cell lines; assay: Apoptosis versus intracellular ROS level in leukemia cell lines; assay type: cell-based; conditions: series of concentrations
Protocol: as §2, §4
Fenretinide induces ROS-dependent apoptosis is the common feature in a variety of tumors (Sun et al., 1999). Here, we extensively explored the relationship between intracellular ROS levels and apoptosis outcomes induced by fenretinide in a panel of leukemia cell lines, including K562, HL60 and NB4. The intracellular ROS levels in leukemic cells were evaluated by DCFH-DA staining, and apoptosis of leukemic cells induced by fenretinide treatment with a series of concentrations was examined through annexin-V FITC and 7AAD double staining.

K562 = assay: Apoptosis in CML cell line K562; assay type: cell-based; conditions: 4 μM fenretinide, 0.25 μM imatinib, 0.1 μM MG132, alone or combined
Protocol: as §2

For `CC1=C(/C=C/C(C)=C/C=C/C(C)=C/C(=O)Nc2ccc(O)cc2)C(C)(C)CCC1` [fenretinide, N-(4-hydroxyphenyl)retinamide], the “percentage of apoptotic cells” value (HL60 cells [1]; proliferating HL60 cells, 1 μM fenretinide) was 11.8%, the “percentage of apoptotic cells” value (HL60 cells [1]; proliferating HL60 cells, 2.5 μM fenretinide) was 36.8% and the “percentage of apoptotic cells” value (HL60 cells [1]; serum-deprived quiescent HL60 cells, 1 μM fenretinide) was 39.5%. The “percentage of apoptotic cells” value (HL60 cells [1]; serum-deprived quiescent HL60 cells, 2.5 μM fenretinide) was 52.7%, the “increase of ROS level” value (HL60 cells [2]; 1 μM fenretinide) was 1.77 fold and the “increase of ROS level” value (HL60 cells [2]; 2.5 μM fenretinide) was 2.6 fold. The “fold change of ROS” value (HL60 cells [2]; 1 μM fenretinide) was 3.83 fold, the “fold change of ROS” value (HL60 cells [2]; 2.5 μM fenretinide) was 4.3 fold and the viability at 5 µM (AML CD34+ cells; Homo sapiens, 18 h, read-out: viability of most resistant AML specimen (AML #8)) was 89.7%. It also gave a viability at 5 µM (AML CD34+ cells; Homo sapiens, 18 h, read-out: viability of most sensitive AML specimen (AML #20)) of 0.5%, a viability at 5 µM (AML CD34+ cells; Homo sapiens, 18 h in culture, read-out: mean viability of AML CD34+ cells) of 45.4% and a viability at 7.5 µM (AML CD34+ cells; Homo sapiens, 7.5 μM fenretinide, read-out: mean viability of AML CD34+ specimens) of 12.2%. For the same compound, the “apoptosis induction in AML CD34+ cells” value (AML CD34+ cells; short-term suspension culture) was “time- and dose-dependant manner”, the “susceptibility to fenretinide-induced apoptosis versus level of intracellular ROS” value [3] was “positively correlated” and the apoptosis rate (K562) was 2.46%.
